Key:
Type in all cases: cell-based, human
[1] = test system: HT-29 (colorectal carcinoma, B-RafV600E) cells; test: Cell proliferation (Alamar Blue) assay, HT-29; conditions: Homo sapiens, HT-29, HT29 cells
Method in brief: (§1)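 A 72 h exposure to compound (3-fold series, typically 0.0005 to 10 uM) of cells seeded at 5000/well precedes a 1-3 h Alamar Blue (1×) incubation. Growth inhibition is quantified by fluorescence and fitted to give IC50.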

[2] = test system: HCT116 (colorectal carcinoma, K Ras G13D) cells; test: Cell proliferation (Alamar Blue) assay, HCT116; conditions: Homo sapiens, HCT-116, HCT116 cells
Method in brief: as §1

[3] = test system: phosphorylation of RSK1(S380) (the downstream target of ERK1/2); test: Phospho-RSK1(S380) ELISA assay in HT-29 cells; conditions: Homo sapiens, HT-29, HT29 cells, phospho-RSK1(S380); read-out: Mechanistic Cell Assay RSK1 Phos HT29 IC50
Method in brief: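 IC50 values derive from a variable-slope sigmoidal fit of sandwich-ELISA signal (450 nm) for RSK1 Ser380 phosphorylation. The cells were B-RafV600E HT-29 colorectal line, exposed to serially diluted compound for 2 h after overnight seeding, then lysed at 4° C.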

Row | SMILES | IC50 [1] | IC50 [2] | IC50 [3]
1 | Cc1cnc(Nc2ccc3c(c2)OC(F)(F)O3)nc1-n1ccc(C(=O)NC(CO)c2ccccc2)c1 (stereo not drawn) [Example 63, 1-(2-((2,2-difluoro-benzo[d][1,3]dioxol-5-yl)amino)-5-methyl-pyrimidin-4-yl)-N-(2-hydroxy-1-phenylethyl)-1H-pyrrole-3-carboxamide] | 500 to 2500 nM | 500 to 2500 nM | 250 to 500 nM
2 | COC[C@@H](NC(=O)c1ccn(-c2nc(Nc3ccc4c(c3)OCO4)ncc2C)c1)c1ccccc1 [Example 64, (S)-1-(2-(benzo[d][1,3]dioxol-5-ylamino)-5-methyl-pyrimidin-4-yl)-N-(2-methoxy-1-phenylethyl)-1H-pyrrole-3-carboxamide] | 250 to 500 nM | 500 to 2500 nM | 500 to 2500 nM
3 | Cc1cnc(Nc2ccc3occc3c2)nc1-n1ccc(C(=O)NC(CO)c2ccccc2)c1 (stereo not drawn) [Example 65, 1-(2-(benzo-furan-5-ylamino)-5-methyl-pyrimidin-4-yl)-N-(2-hydroxy-1-phenylethyl)-1H-pyrrole-3-carboxamide] | 100 to 250 nM | 100 to 250 nM | ≤ 100 nM
4 | O=C(NC(CO)c1ccccc1)c1ccn(-c2nc(Nc3ccc4c(c3)OCO4)ncc2F)c1 (stereo not drawn) [Example 66, 1-(2-(benzo[d][1,3]dioxol-5-ylamino)-5-fluoro-pyrimidin-4-yl)-N-(2-hydroxy-1-phenylethyl)-1H-pyrrole-3-carboxamide] | 250 to 500 nM | 500 to 2500 nM | 100 to 250 nM
5 | O=C(NC(CO)c1ccccc1)c1ccn(-c2nc(Nc3ccccc3Cl)ncc2F)c1 (stereo not drawn) [Example 67, 1-(2-((2-chloro-phenyl)amino)-5-fluoro-pyrimidin-4-yl)-N-(2-hydroxy-1-phenylethyl)-1H-pyrrole-3-carboxamide] | > 2500 nM | > 2500 nM | 500 to 2500 nM
6 | Cc1cnc(Nc2ccc3c(c2)OC(F)(F)O3)nc1-n1ccc(C(=O)N[C@H](CO)c2ccc(F)c(Cl)c2)c1 [Example 69, (S)-N-(1-(3-chloro-4-fluoro-phenyl)-2-hydroxy-ethyl)-1-(2-((2,2-difluoro-benzo[d][1,3]dioxol-5-yl)amino)-5-methyl-pyrimidin-4-yl)-1H-pyrrole-3-carboxamide] | 500 to 2500 nM | 500 to 2500 nM | 500 to 2500 nM
7 | Cc1cnc(Nc2ccc3c(c2)OCO3)nc1-n1ccc(C(=O)NC(CO)c2cccc(Cl)c2F)c1 (stereo not drawn) [Example 70, 1-(2-(benzo[d][1,3]dioxol-5-ylamino)-5-methyl-pyrimidin-4-yl)-N-(1-(3-chloro-2-fluorophenyl)-2-hydroxy-ethyl)-1H-pyrrole-3-carboxamide] | > 2500 nM | 500 to 2500 nM | 250 to 500 nM
8 | O=C(NC(CO)c1ccccc1)c1ccn(-c2ccnc(Nc3ccccc3)c2)c1 (stereo not drawn) [Example 71, N-(2-hydroxy-1-phenylethyl)-1-(2-(phenylamino)pyridin-4-yl)-1H-pyrrole-3-carboxamide] | 500 to 2500 nM | > 2500 nM | 250 to 500 nM
9 | O=C(N[C@H](CO)c1cccc(Cl)c1)c1cn(-c2ccnc(Nc3ccccc3)c2)cn1 [Example 72, (S)-N-(1-(3-chlorophenyl)-2-hydroxy-ethyl)-1-(2-(phenylamino)pyridin-4-yl)-1H-imidazole-4-carboxamide] | 500 to 2500 nM | > 2500 nM | ≤ 100 nM
10 | Cc1cnc(Nc2ccc(N3CCNCC3)cc2)nc1-n1ccc(C(=O)NC(CO)c2ccccc2)c1 (stereo not drawn) [Example 73, N-(2-hydroxy-1-phenylethyl)-1-(5-methyl-2-((4-(piperazin-1-yl)-phenyl)amino)pyrimidin-4-yl)-1H-pyrrole-3-carboxamide] | 500 to 2500 nM | 500 to 2500 nM | > 2500 nM
11 | CC[C@@H](CO)Nc1ncc(C)c(-n2ccc(C(=O)NC(CO)c3ccccc3)c2)n1 (stereo partly drawn) [Example 75, N-(2-hydroxy-1-phenylethyl)-1-(2-(((S)-1-hydroxy-butan-2-yl)amino)-5-methyl-pyrimidin-4-yl)-1H-pyrrole-3-carboxamide] | 500 to 2500 nM | > 2500 nM | 500 to 2500 nM
12 | O=C(NC(CO)c1ccccc1)c1ccn(-c2ccnc(Nc3ccc4c(c3)OCO4)c2)c1 (stereo not drawn) [Example 76, 1-(2-(benzo[d][1,3]dioxol-5-ylamino)pyridin-4-yl)-N-(2-hydroxy-1-phenylethyl)-1H-pyrrole-3-carboxamide] | 500 to 2500 nM | > 2500 nM | 250 to 500 nM
13 | Cc1cnc(Nc2ccc3c(c2)OC(F)(F)O3)cc1-n1ccc(C(=O)NC(CO)c2ccccc2)c1 (stereo not drawn) [Example 80, 1-(2-((2,2-difluorobenzo [d][1,3]dioxol-5-yl)-amino)-5-methyl-pyridin-4-yl)-N-(2-hydroxy-1-phenyl-ethyl)-1H-pyrrole-3-carboxamide] | > 2500 nM | > 2500 nM | > 2500 nM
14 | Cc1cnc(Nc2ccc3c(c2)OCO3)nc1-n1ccc(C(=O)N[C@H](CO)c2ccc(F)c(Cl)c2)c1 [Example 87, (S)-1-(2-(benzo[d][1,3]dioxol-5-ylamino)-5-methyl-pyrimidin-4-yl)-N-(1-(3-chloro-4-fluorophenyl)-2-hydroxy-ethyl)-1H-pyrrole-3-carboxamide] | 250 to 500 nM | 500 to 2500 nM | 100 to 250 nM

Second part, the molecule after the results:

Row | IC50 [1] | IC50 [2] | IC50 [3] | SMILES
15 | 500 to 2500 nM | > 2500 nM | 500 to 2500 nM | Cc1cnc(Nc2ccc(F)cc2Cl)cc1-n1ccc(C(=O)NC(CO)c2cccc(Cl)c2)c1 (stereo not drawn) [Example 91, 1-(2-((2-chloro-4-fluorophenyl)amino)-5-methyl-pyridin-4-yl)-N-(1-(3-chlorophenyl)-2-hydroxy-ethyl)-1H-pyrrole-3-carboxamide]
16 | 250 to 500 nM | 500 to 2500 nM | 250 to 500 nM | Cc1cnc(Nc2ccc3c(c2)OC(C)(C)O3)nc1-n1ccc(C(=O)NC(CO)c2ccccc2)c1 (stereo not drawn) [Example 95, 1-(2-((2,2-dimethyl-benzo[d][1,3]dioxol-5-yl)-amino)-5-methyl-pyrimidin-4-yl)-N-(2-hydroxy-1-phenylethyl)-1H-pyrrole-3-carboxamide]
17 | 250 to 500 nM | 500 to 2500 nM | 250 to 500 nM | Cc1cnc(Nc2ccc3c(c2)OC(C)(C)O3)nc1-n1ccc(C(=O)NC(CO)c2cccc(Cl)c2)c1 (stereo not drawn) [Example 96, N-(1-(3-chloro-phenyl)-2-hydroxy-ethyl)-1-(2-((2,2-dimethyl-benzo[d][1,3]dioxol-5-yl)amino)-5-methyl-pyrimidin-4-yl)-1H-pyrrole-3-carboxamide]
18 | > 2500 nM | > 2500 nM | 250 to 500 nM | CC[C@@H](CO)Nc1cc(-n2ccc(C(=O)NC(CO)c3ccccc3)c2)c(C)cn1 (stereo partly drawn) [Example 100, N-(2-hydroxy-1-phenyl-ethyl)-1-(2-(((S)-1-hydroxy-butan-2-yl)amino)-5-methyl-pyridin-4-yl)-1H-pyrrole-3-carboxamide]
19 | 500 to 2500 nM | 500 to 2500 nM | 500 to 2500 nM | Cc1cn(-c2nc(Nc3ccc(F)cc3)ncc2C)cc1C(=O)NC(CO)c1cccc(Cl)c1 (stereo not drawn) [Example 107, N-(1-(3-chlorophenyl)-2-hydroxy-ethyl)-1-(2-((4-fluoro-phenyl)amino)-5-methyl-pyrimidin-4-yl)-4-methyl-1H-pyrrole-3-carboxamide]
20 | > 2500 nM | > 2500 nM | 250 to 500 nM | CC[C@@H](CO)Nc1cc(-n2ccc(C(=O)NC(CO)c3cccc(Cl)c3)c2)ccn1 (stereo partly drawn) [Example 109, N-(1-(3-chloro-phenyl)-2-hydroxy-ethyl)-1-(2-(((S)-1-hydroxy-butan-2-yl)amino)pyridin-4-yl)-1H-pyrrole-3-carboxamide]
21 | > 2500 nM | > 2500 nM | > 2500 nM | Cc1cn(-c2ccnc(Nc3ccc(F)cc3)n2)cc1C(=O)NC(CO)c1cccc(Cl)c1 (stereo not drawn) [Example 110, N-(1-(3-chloro-phenyl)-2-hydroxy-ethyl)-1-(2-((4-fluoro-phenyl)-amino)pyrimidin-4-yl)-4-methyl-1H-pyrrole-3-carboxamide]
22 | 100 to 250 nM | 100 to 250 nM | 100 to 250 nM | Cc1cnc(Nc2ccc(F)cc2)nc1-n1ccc(C(=O)NC(CO)c2cccc(Cl)c2)c1 (stereo not drawn) [Example 113, N-(1-(3-chloro-phenyl)-2-hydroxy-ethyl)-1-(2-((4-fluoro-phenyl)amino)-5-methyl-pyrimidin-4-yl)-1H-pyrrole-3-carboxamide]
23 | 500 to 2500 nM | 250 to 500 nM | 100 to 250 nM | Cc1cnc(Nc2ccc(F)cc2)nc1-n1ccc(C(=O)NC(CO)c2ccccc2)c1 (stereo not drawn) [Example 114, 1-(2-((4-fluoro-phenyl)amino)-5-methyl-pyrimidin-4-yl)-N-(2-hydroxy-1-phenylethyl)-1H-pyrrole-3-carboxamide]
24 | > 2500 nM | > 2500 nM | 250 to 500 nM | Cc1cnc(NC2CC2)nc1-n1ccc(C(=O)NC(CO)c2cccc(Cl)c2)c1 (stereo not drawn) [Example 115, N-(1-(3-chloro-phenyl)-2-hydroxy-ethyl)-1-(2-(cyclopropyl-amino)-5-methyl-pyrimidin-4-yl)-1H-pyrrole-3-carboxamide]
25 | > 2500 nM | > 2500 nM | 500 to 2500 nM | O=C(N[C@H](CO)c1cccc(Cl)c1)c1cn(-c2ccnc(NC3CC3)c2)cn1 [Example 116, (S)-N-(1-(3-chlorophenyl)-2-hydroxy-ethyl)-1-(2-(cyclopropyl-amino)pyridin-4-yl)-1H-imidazole-4-carboxamide]
26 | > 2500 nM | > 2500 nM | 500 to 2500 nM | Cc1cnc(NC(C)c2ccccc2)nc1-n1ccc(C(=O)NC(CO)c2ccccc2)c1 (stereo not drawn) [Example 117, N-(2-hydroxy-1-phenyl-ethyl)-1-(5-methyl-2-((1-phenylethyl)amino)pyrimidin-4-yl)-1H-pyrrole-3-carboxamide]

Reference: US11925629B2, “Heterocyclic inhibitors of ERK1 and ERK2 and their use in the treatment of cancer” (Asana Biosciences, LLC, priority 2015, dated 2024)
